Consider one compound from patent US20190210996A1, “NOVEL COMPOUNDS” (GLAXOSMITHKLINE INTELLECTUAL PROPERTY DEVELOPMENT LIMITED, priority 2016, published 2019).

In this assay the target is T1, GAK (Homo sapiens, UniProt O14976).
T1 construct: endogenous in cells; host or cells: THP-1
T1 sequence (O14976 1-1311): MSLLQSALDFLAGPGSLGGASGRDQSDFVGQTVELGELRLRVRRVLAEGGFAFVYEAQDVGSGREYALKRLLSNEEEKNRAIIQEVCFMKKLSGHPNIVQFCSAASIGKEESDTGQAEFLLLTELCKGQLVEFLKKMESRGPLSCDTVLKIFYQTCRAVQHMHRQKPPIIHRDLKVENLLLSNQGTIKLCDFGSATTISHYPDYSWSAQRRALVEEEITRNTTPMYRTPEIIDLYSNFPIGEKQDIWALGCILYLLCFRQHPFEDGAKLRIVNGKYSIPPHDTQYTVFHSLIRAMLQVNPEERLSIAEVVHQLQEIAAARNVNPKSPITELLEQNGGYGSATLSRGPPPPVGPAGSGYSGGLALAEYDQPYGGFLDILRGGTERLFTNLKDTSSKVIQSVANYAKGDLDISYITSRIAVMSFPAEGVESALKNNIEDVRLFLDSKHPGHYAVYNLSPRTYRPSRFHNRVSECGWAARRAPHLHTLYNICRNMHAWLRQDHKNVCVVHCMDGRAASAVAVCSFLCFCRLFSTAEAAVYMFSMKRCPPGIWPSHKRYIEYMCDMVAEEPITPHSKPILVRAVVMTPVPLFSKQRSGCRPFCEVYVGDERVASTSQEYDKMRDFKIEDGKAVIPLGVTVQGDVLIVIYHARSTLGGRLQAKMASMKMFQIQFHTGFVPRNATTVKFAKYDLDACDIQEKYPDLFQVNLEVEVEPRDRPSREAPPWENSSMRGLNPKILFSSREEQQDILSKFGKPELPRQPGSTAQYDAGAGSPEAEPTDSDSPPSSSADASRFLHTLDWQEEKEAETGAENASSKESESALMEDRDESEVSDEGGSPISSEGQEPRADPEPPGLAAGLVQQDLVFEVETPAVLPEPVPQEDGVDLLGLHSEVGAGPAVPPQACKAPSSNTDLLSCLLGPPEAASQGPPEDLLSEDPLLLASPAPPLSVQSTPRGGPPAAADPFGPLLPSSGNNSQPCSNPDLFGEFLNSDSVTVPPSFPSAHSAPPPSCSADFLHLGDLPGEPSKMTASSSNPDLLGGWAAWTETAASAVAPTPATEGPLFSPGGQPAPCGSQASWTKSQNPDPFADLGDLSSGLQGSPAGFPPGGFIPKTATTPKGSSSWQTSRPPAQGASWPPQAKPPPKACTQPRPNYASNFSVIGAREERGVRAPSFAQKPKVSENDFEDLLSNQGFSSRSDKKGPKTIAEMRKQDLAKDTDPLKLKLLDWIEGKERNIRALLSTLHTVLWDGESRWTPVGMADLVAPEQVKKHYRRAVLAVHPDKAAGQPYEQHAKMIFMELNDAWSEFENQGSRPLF
The assay is described as follows: Expression proteomics in THP-1 cells: GAK protein level. The class given is cell-based. The protocol:
THP-1 cells were seeded at a concentration of 3×10^6 cells in T175 flasks with 60 mL growth medium (RPMI1640+10% FBS). […] of a 10× compound solution prepared in growth medium (DMSO), CEREBLON_PROTAC) was added and the cells were treated for the indicated time points (6 or 24 h) at 37° C., 5% CO2. For harvesting the cells were collected into falcon tubes on ice, centrifuged and washed twice in cold PBS (Life technologies). After the last washing step the supernatant was removed and the pellets were snap-frozen in liquid N2 and stored at −80° C. and lysed in 2% SDS for 3 min at 95° C. in a thermomixer (Thermo Fisher Scientific), followed by digestion of DNA with Benzonase at 37° C. for 1.5 h. Lysate was cleared by centrifugation an protein concentration in supernatant was determined by BCA assay.
Leukemia 25, 89-100 (2011).
Samples were dried in vacuo and resuspended in 0.05% trifluoroacetic acid in water. Of the sample, 50% was injected into an Ultimate3000 nanoRLSC (Dionex, Sunnyvale, Calif.) coupled to a Q Exactive HF (Thermo Fisher Scientific). Peptides were trapped on a 5 mm×300 μm C18 column (Pepmap100, 5 μm, 300 Å, Thermo Fisher Scientific) in water with 0.05% TFA at 60° C. Separation was performed on custom 50 cm×[…] (ID) reversed-phase columns (Reprosil) at 55° C. Gradient elution was performed from 2% acetonitrile to 40% acetonitrile in 0.1% formic acid and 3.5% DMSO over 2 hours. Samples were online injected into Q-Exactive HF mass spectrometers operating with a data-dependent top 10 method. MS spectra were acquired by using 60.000 resolution and an ion target of 3×10^6. Higher energy collisional dissociation (HCD) scans were performed with 35% NCE at 30.000 resolution (at m/z 200), and the ion target settings was set to 2×10^5 so as to avoid coalescence (Werner, T. et al. Ion Coalescence of Neutron Encoded TMT 10-Plex Reporter Ions. Anal. Chem. 86, 3594-3601 (2014).
The first search was performed with 30 parts per million mass tolerance for peptide precursors and 30 mD (HCD) mass tolerance for fragment ions followed by a final search using recalibrated data with a 10 parts per million mass tolerance for peptide precursors and 20 mD (HCD) mass tolerance for fragment ions. Carbamidomethylation of cysteine residues and TMT modification of lysine residues were set as fixed modifications and methionine oxidation, and N-terminal acetylation of proteins and TMT modification of peptide N-termini were set as variable modifications. […]
Nat Biotech 29, 255-265 (2011). this measure is referred to as ion area Savitski, M. M. et al. Delayed Fragmentation and Optimized Isolation Width Settings for Improvement of Protein Identification and Accuracy of Isobaric Mass Tag Quantification on Orbitrap-Type Mass Spectrometers. […]

With `CNC(=O)c1ccccc1Nc1nc(Nc2ccc(N3CCN(CCOCCOCCOCCOCC(=O)Nc4cccc5c4CN(C4CCC(=O)NC4=O)C5=O)CC3)cc2)ncc1Cl.O=CO` (stereo not shown) [CEREBLON_PROTAC, 14-(4-(4-((5-Chloro-4-((2-(methylcarbamoyl)phenyl)amino)pyrimidin-2-yl)amino)phenyl)piperazin-1-yl)-N-(2-(2,6-dioxopiperidin-3-yl)-1-oxoisoindolin-4-yl)-3,6,9,12-tetraoxatetradecan-1-amide formate], the “log2 rel. fc. to vehicle control” value is recorded as −1.13 (24 h 0.1 μM, n = 1); −1.35 (24 h 0.1 μM, n = 2); −0.93 (24 h 1 μM, n = 1); −1.13 (24 h 1 μM, n = 2).
